This note sets out measurements from patent US20100035926A1, “PYRAZOLE DERIVATIVES AS NON-STEROIDAL GLUCOCORTICOID RECEPTOR LIGANDS” (priority 2006, published 2010).

For assay [1], the target named is T1, glucocorticoid receptor (Homo sapiens, UniProt P04150).
T1 construct: a partially purified full length glucocorticoid receptor
T1 sequence (P04150 1-777): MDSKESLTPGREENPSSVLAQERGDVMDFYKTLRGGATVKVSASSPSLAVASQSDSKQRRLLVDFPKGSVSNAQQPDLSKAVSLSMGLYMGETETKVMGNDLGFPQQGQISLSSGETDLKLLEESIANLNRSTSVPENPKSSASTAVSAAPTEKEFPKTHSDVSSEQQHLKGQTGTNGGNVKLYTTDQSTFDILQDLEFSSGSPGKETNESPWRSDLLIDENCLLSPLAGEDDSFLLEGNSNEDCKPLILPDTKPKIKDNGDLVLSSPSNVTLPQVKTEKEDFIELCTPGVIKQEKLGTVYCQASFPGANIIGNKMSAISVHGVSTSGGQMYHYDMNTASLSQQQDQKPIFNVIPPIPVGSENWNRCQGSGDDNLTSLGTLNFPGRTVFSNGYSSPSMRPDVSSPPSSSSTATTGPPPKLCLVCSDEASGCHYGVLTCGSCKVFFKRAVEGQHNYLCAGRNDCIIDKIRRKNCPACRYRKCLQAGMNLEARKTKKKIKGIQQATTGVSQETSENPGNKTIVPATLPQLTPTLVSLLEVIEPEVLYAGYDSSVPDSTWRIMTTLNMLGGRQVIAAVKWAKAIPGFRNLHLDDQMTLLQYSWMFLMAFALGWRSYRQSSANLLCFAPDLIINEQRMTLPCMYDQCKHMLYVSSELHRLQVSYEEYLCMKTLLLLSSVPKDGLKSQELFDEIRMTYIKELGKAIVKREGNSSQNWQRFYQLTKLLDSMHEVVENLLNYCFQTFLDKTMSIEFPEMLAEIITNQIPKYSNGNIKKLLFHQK
Description: Glucocorticoid Receptor Binding Assay (fluorescence polarisation, displacement of Alexa 555 labelled dexamethasone derivative). As to conditions: at least once in this assay; read-out: glucocorticoid binding pIC50 (converted). The protocol:
Compounds were solvated and diluted in DMSO, and transferred directly into assay plates. Fluorescent dexamethasone and a partially purified full length glucocorticoid receptor were added to the plates, together with buffer components to stabilise the GR protein and incubated at room temperature for 2 hr in the dark. Binding of each compound was assessed by analysing the displacement of fluorescent ligand by measuring the decrease in fluorescence polarisation signal from the mixture.
For orientation: Fluorescence polarisation rises when a labelled molecule tumbles more slowly, as on binding a larger partner.

The target in assay [2] is T2, GR (Homo sapiens, UniProt P04150).
T2 construct: endogenous in cells; host or cells: A549 (human lung carcinoma, ECACC No. 86012804), stably transfected with reporter plasmids only
T2 sequence (P04150 1-777): T1 sequence (P04150 1-777)
Description: GR Functional Assay - NFκB Assay (A549 SPAP cells, TNFα stimulated). As to conditions: for Emax: agonists, read-out: average maximum asymptote in the NFkB assay. Format: cell-based. As to the method:
Stimulation of the cell line with TNFα results in intracellular signal transduction and ultimately translocation of NFκB into the nucleus. This activates the inserted DNA sequence resulting in transcription of the integrated SPAP gene, which is quantified using a calorimetric assay. […] The stably transfected cell line was grown as a monolayer in DMEM supplemented with FCS-HI (10%), Non-essential amino acids (1%), L-Glutamine (2 mM), Pen/Strep (1%) and Geneticin (50 mg/ml).
A 70% confluent T225 flask of A549 SPAP cells was harvested by centrifugation for 5 mins at 200 g, resuspended in assay buffer (DMEM supplemented with 10% FCS 2×HI, 2 mM L-Glutamine, 1% Pen/Strep and Non essential amino acids) and diluted to 0.16×10^6/ml. 60 μl of cell solution was dispensed to each well of clear Nunc 384-well plates, containing compound at the required concentration. […] Plates were equilibrated to room temperature for 1 hr prior to the addition of 25 μl of pNPP buffer (1M Diethanolamine pH 9.8, 0.5 mM MgCl2, 0.28M NaCl, 2 mg/ml pNPP) to each well of assay plates.

Assay [3] addresses T2, GR. Briefly: GR Agonist Assay - MMTV Assay (A549 MMTV cells, renilla luciferase reporter). It counts as cell-based. As to conditions: 6 h, agonists, read-out: average maximum asymptote in the MMTV agonist assay. The protocol: Stimulation of the cell line with GR agonists results in intracellular signal transduction and ultimately translocation of GR into the nucleus. This activates the inserted DNA sequence resulting in transcription of the integrated luciferase gene, which is quantified using a light emission. The stably transfected cell line was grown as a monolayer in DMEM supplemented with FCS-HI (10%), Non-essential amino acids (1%), L-Glutamine (2 mM), Pen/Strep (1%) and Geneticin (50 mg/ml).
A 90% confluent T175 flask of A549 MMTV cells was harvested by centrifugation for 5 min at 200 g, resuspended in assay buffer (DMEM supplemented with 10% FCS 2×HI, 2 mM Glutamax, Non essential amino acids and 25 mM HEPES) and diluted to 0.1×10^6/ml. 70 μl of cell solution was dispensed to each well of white Nunc 384-well plates, containing compound at the required concentration. […] The plates were covered to protect the reagents from light, and then incubated at room temperature for approximately 15 mins before reading them on a Viewlux.
A general note: A reporter such as luciferase makes a cellular process visible.

Setting [4] is: at least once in the NFkB assay, A549 SPAP cells, read-out: pIC50 in the NFkB assay (converted).
Where [5] appears, read: at least once, examples listed as agonists in NFkB and MMTV assays, read-out: potency pIC50 in the NFKB assay (converted).

Like-named read-outs stand apart in the source and are kept apart here.

`CCN(CC(O)(CNC(=O)c1cnn(-c2ccc(F)cc2)c1N)C(F)(F)F)C(=O)c1cccc(Cl)c1` (racemic) [Example 17 (racemic), 5-amino-N-(2-{[[(3-chlorophenyl)car-bonyl](ethyl)amino]methyl}-3,3,3-trifluoro-2-hydroxypropyl)-1-(4-fluorophenyl)-1H-pyrazole-4-carboxamide]: the IC50 was under 1000 nM in assay [1], under 1000 nM in assay [2] (setting [4]) and under 316 nM in assay [2] (setting [5]). The Emax in assay [2] (A549 SPAP cells) and in assay [3] was at least 40% in each case.
Consider `CCN(CC(O)(CNC(=O)c1cnn(-c2ccc(F)cc2)c1N)C(F)(F)F)C(=O)c1cccc(F)c1Cl` (racemic) [Example 18 (racemic), 5-amino-N-(2-{[[(2-chloro-3-fluorophenyl)car-bonyl](ethyl)amino]methyl}-3,3,3-trifluoro-2-hydroxypropyl)-1-(4-fluorophenyl)-1H-pyrazole-4-carboxamide], for which the figures for the IC50 in assay [1], in assay [2] (setting [4]) and in assay [2] (setting [5]) were under 1000 nM, under 1000 nM and under 316 nM, respectively. The Emax in assay [2] (A549 SPAP cells) and in assay [3] was at least 40% throughout.
In the case of `CCN(CC(O)(CNC(=O)c1cnn(-c2ccc(F)cc2)c1N)C(F)(F)F)C(=O)c1cccc(C(F)(F)F)c1` (racemic) [Example 20 (racemic), 5-amino-N-{2-[(ethyl{[3-(trifluoromethyl)phenyl]carbonyl}amino)methyl]-3,3,3-trifluoro-2-hydroxypropyl}-1-(4-fluorophenyl)-1H-pyrazole-4-carboxamide], the IC50 in assay [1] was under 1000 nM; in assay [2] (setting [4]) it was under 1000 nM; in assay [2] (setting [5]), under 316 nM. The Emax in assay [2] (A549 SPAP cells) and in assay [3] was at least 40% in each case.
Take `CCN(CC(O)(CNC(=O)c1cnn(-c2ccc(F)cc2)c1N)C(F)(F)F)C(=O)c1ccc(F)cc1Cl` (racemic) [Example 23 (racemic), 5-amino-N-(2-{[[(2-chloro-4-fluorophenyl)car-bonyl](ethyl)amino]methyl}-3,3,3-trifluoro-2-hydroxypropyl)-1-(4-fluorophenyl)-1H-pyrazole-4-carboxamide]: the values for the IC50 in assay [1], in assay [2] (setting [4]) and in assay [2] (setting [5]) were under 1000 nM, under 1000 nM and under 316 nM, respectively. The Emax in assay [2] (A549 SPAP cells) and in assay [3] was at least 40% each time.
Take `CC(=O)c1ccccc1C(=O)N(C)CC(O)(CNC(=O)c1cnn(-c2ccc(F)cc2)c1N)C(F)(F)F` (racemic) [Example 27 (racemic), N-(2-{[[(2-acetylphenyl)car-bonyl](methyl)amino]methyl}-3,3,3-trifluoro-2-hydroxypropyl)-5-amino-1-(4-fluorophenyl)-1H-pyrazole-4-carboxamide]: the IC50 was under 1000 nM in assay [1], under 1000 nM in assay [2] (setting [4]) and under 316 nM in assay [2] (setting [5]). Also, the Emax in assay [2] (A549 SPAP cells) and in assay [3] was at least 40% throughout.
For `CN(CC(O)(CNC(=O)c1cnn(-c2ccc(F)cc2)c1N)C(F)(F)F)C(=O)c1ccccc1C(F)(F)F` (racemic) [Example 28 (racemic), 5-amino-1-(4-fluorophenyl)-N-{3,3,3-trifluoro-2-hydroxy-2-[(methyl{[2-(trifluoromethyl)phenyl]carbonyl}amino)methyl]propyl}-1H-pyrazole-4-carboxamide], the IC50 in assay [1] is under 1000 nM; in assay [2] (setting [4]), under 1000 nM; in assay [2] (setting [5]), under 316 nM. Moreover, the Emax in assay [2] (A549 SPAP cells) and in assay [3] was at least 40% each time.
As for `CCN(CC(O)(CNC(=O)c1cnn(-c2ccc(Cl)cc2)c1N)C(F)(F)F)C(=O)c1ccccc1` (racemic) [Example 32 (racemic), 5-amino-1-(4-chlorophenyl)-N-(2-{[ethyl(phenylcarbonyl)amino]methyl}-3,3,3-trifluoro-2-hydroxypropyl)-1H-pyrazole-4-carboxamide], the IC50 in assay [1] is under 1000 nM; in assay [2] (setting [5]), under 316 nM. Further, the Emax in assay [2] (A549 SPAP cells) and in assay [3] was at least 40% each time.
On to `CCN(CC(O)(CNC(=O)c1cnn(-c2cc(F)cc(F)c2)c1N)C(F)(F)F)C(=O)c1ccccc1` (racemic) [Example 33 (racemic), 5-amino-1-(3,5-difluorophenyl)-N-(2-{[ethyl(phenylcarbonyl)amino]methyl}-3,3,3-trifluoro-2-hydroxypropyl)-1H-pyrazole-4-carboxamide], for which the figures for the IC50 in assay [1] and in assay [2] (setting [5]) were under 1000 nM and under 316 nM, respectively. Further, the Emax in assay [2] (A549 SPAP cells) and in assay [3] was at least 40% each time.
As to `CCN(CC(O)(CNC(=O)c1cnn(-c2cccc(F)c2)c1N)C(F)(F)F)C(=O)c1ccccc1` (racemic) [Example 35 (racemic), 5-amino-N-(2-{[ethyl(phenylcarbonyl)amino]methyl}-3,3,3-trifluoro-2-hydroxypropyl)-1-(3-fluorophenyl)-1H-pyrazole-4-carboxamide], the IC50 was under 1000 nM in assay [1] and under 316 nM in assay [2] (setting [5]). In addition, the Emax in assay [2] (A549 SPAP cells) and in assay [3] was at least 40% in each case.
On to `CCN(CC(O)(CNC(=O)c1cnn(-c2cccc(Cl)c2)c1N)C(F)(F)F)C(=O)c1ccccc1` (racemic) [Example 37 (racemic), 5-amino-1-(3-chlorophenyl)-N-(2-{[ethyl(phenylcar-bonyl)amino]methyl}-3,3,3-trifluoro-2-hydroxypropyl)-1H-pyrazole-4-carboxamide], for which the results for the IC50 in assay [1] and in assay [2] (setting [5]) were under 1000 nM and under 316 nM, respectively. The Emax in assay [2] (A549 SPAP cells) and in assay [3] was at least 40% in each case.
Consider `CCN(CC(O)(CNC(=O)c1cnn(-c2ccc(F)cc2)c1N)C(F)(F)F)C(=O)c1ncccc1F` (racemic) [Example 38 (racemic), N-{2-[({[5-amino-1-(4-fluorophenyl)-1H-pyrazol-4-yl]carbonyl}amino)methyl]-3,3,3-trifluoro-2-hydroxypropyl}-N-ethyl-3-fluoro-2-pyridinecarboxamide], for which the IC50 in assay [1] was under 1000 nM; in assay [2] (setting [5]) it was under 316 nM. In addition, the Emax in assay [2] (A549 SPAP cells) and in assay [3] was at least 40% throughout.
Regarding `Nc1c(C(=O)NCC(O)(CN(CCF)C(=O)c2ncccc2F)C(F)(F)F)cnn1-c1ccc(F)cc1` (racemic) [Example 40 (racemic), N-{2-[({[5-amino-1-(4-fluorophenyl)-1H-pyrazol-4-yl]carbonyl}amino)methyl]-3,3,3-trifluoro-2-hydroxypropyl}-3-fluoro-N-(2-fluoroethyl)-2-pyridinecarboxamide], the figures for the IC50 in assay [1] and in assay [2] (setting [5]) were under 1000 nM and under 316 nM, respectively. Besides, the Emax in assay [2] (A549 SPAP cells) and in assay [3] was at least 40% in each case.
